# According to patent US8178658B2 (Dow AgroSciences, LLC, priority 2008, dated 2012):
# Tests used:
# [1] = system: beet armyworm (BAW; Spodoptera exigua: Lepidoptera); assay: 96-well microtiter plate-based high throughput (HTS) diet bioassay on beet armyworm (BAW HTS); format: in vivo; conditions: for BAW HTS: BAW eggs, 12 μg test compound per well, mortality at 6 d post-treatment, mortality class
# Procedure, shortened: (§1)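 Two diet formats. HTS: eggs on 96-well diet overlaid with 12 μg compound, held 6 d at 29° C in dark, mean mortality of six replicates. BAW 50: three to five second-instar larvae per well on diet dosed at 50 μg/cm^2, held six days at 25° C under 14:10 light-dark, mortality averaged across eight wells.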
# [2] = system: beet armyworm (BAW; Spodoptera exigua: Lepidoptera); assay: 128-well diet tray assay on beet armyworm (BAW 50); format: in vivo
# Procedure, shortened: as §1
# [3] = 96-well microtiter plate HTS diet assay
# [4] = 128-well diet tray assay; 50 μg/cm^2 of test compound on diet; second instar BAW larvae; mortality class
SMILES,BAW HTS ([1]; 96-well HTS diet assay),"BAW HTS [1, 3]","BAW 50 ug/cm2 [2, 4]","pest or weed control at 12 µg/well, 12 µg/well ([1]; Spodoptera exigua, 144 h, read-out: BAW HTS) [%]","pest or weed control at 50 µg/cm2, 50 µg/cm2 ([2]; Spodoptera exigua, 144 h, read-out: BAW 50 ug/cm2) [%]",BAW HTS ([1]; 96-well HTS diet bioassay),"BAW 50 ug/cm2 ([2]; 128-well diet tray assay, second instar BAW larvae, 50 μg/cm^2 of test compound on diet; mortality class)"
COC1C(C)OC(ON=Cc2ccc(-c3ncc(-c4ccc(OC(F)(F)F)cc4)cn3)cc2)C(OC)C1OC (stereo not shown) [Compound 136],B (either (1) the compound was tested and less than 50 percent mortality was observed or (2) the compound was not tested),B (either (1) the compound was tested and less than 50 percent mortality was observed or (2) the compound was not tested),A (the compound was tested and at least 50 percent mortality was observed),,,,
"CCO[C@@H]1[C@@H](OC)[C@H](C)O[C@@H](OC(=O)N(C)c2ccc(-c3ncn(-c4ccc(OC(F)(F)C(F)(F)F)cc4)n3)cc2)[C@@H]1OC [Compound 251, methyl {4-[1-(4-pentafluoroethoxy-phenyl)-1H-[1,2,4]triazol-3-yl]-phenyl}-carbamic acid (2S,3R,4R,5S,6S)-4-ethoxy-3,5-dimethoxy-6-methyl-tetrahydropyran-2-yl ester]",,B (either (1) the compound was tested and less than 50 percent mortality was observed or (2) the compound was not tested),A (the compound was tested and at least 50 percent mortality was observed),< 50,> 50,,
CCCOC1C(OC)C(C)OC(ON=Cc2ccc(-c3ncn(-c4ccc(C(F)(F)F)cc4)n3)cc2)C1OC (stereo not shown) [Compound 107],,A (the compound was tested and at least 50 percent mortality was observed),A (the compound was tested and at least 50 percent mortality was observed),,,A (the compound was tested and at least 50 percent mortality was observed),
CCOC1C(OC)C(C)OC(OC(=O)Nc2ccc(C3=NN(c4ccc(OC(F)(F)C(F)(F)F)cc4)CC3CN(C)C)cc2)C1OC (mixture of isomers) [Compound 180],B (either (1) the compound was tested and less than 50 percent mortality was observed or (2) the compound was not tested),B (either (1) the compound was tested and less than 50 percent mortality was observed or (2) the compound was not tested),A (the compound was tested and at least 50 percent mortality was observed),,,,
CCO[C@@H]1[C@@H](OC)[C@H](C)O[C@@H](OC(=O)Nc2ccc(-c3ccc(-c4ccc(OC(F)(F)F)cc4)cn3)cc2)[C@@H]1OC [Compound 239],B (either (1) the compound was tested and less than 50 percent mortality was observed or (2) the compound was not tested),B (either (1) the compound was tested and less than 50 percent mortality was observed or (2) the compound was not tested),B (either (1) the compound was tested and less than 50 percent mortality was observed or (2) the compound was not tested),,,,
COC1C(C)OC(ON=Cc2ccc(-c3cn(-c4cccc(Cl)c4C#N)cn3)cc2)C(OC)C1OC (stereo not shown) [Compound 17],,A (the compound was tested and at least 50 percent mortality was observed),B (either (1) the compound was tested and less than 50 percent mortality was observed or (2) the compound was not tested),,,A (the compound was tested and at least 50 percent mortality was observed),
COC1C(C)OC(ON=Cc2ccc(-c3ncn(-c4ccc(OC(F)(F)C(F)F)cc4)n3)cc2)C(OC)C1OC (stereo not shown) [Compound 88],,B (either (1) the compound was tested and less than 50 percent mortality was observed or (2) the compound was not tested),A (the compound was tested and at least 50 percent mortality was observed),,,B (either (1) the compound was tested and less than 50 percent mortality was observed or (2) the compound was not tested),
CCCCO[C@@H]1[C@@H](OC)[C@H](C)O[C@@H](OC(=O)Nc2ccc(-n3cnc(-c4ccc(C)cc4)n3)cc2)[C@@H]1OC [Compound 197],A (the compound was tested and at least 50 percent mortality was observed),A (the compound was tested and at least 50 percent mortality was observed),A (the compound was tested and at least 50 percent mortality was observed),,,,
COc1cccc(-c2cnn(-c3ccc(C=NOC4OC(C)C(OC)C(OC)C4OC)cc3)c2)c1 (stereo not shown) [Compound 1],A (the compound was tested and at least 50 percent mortality was observed),,,,,A (the compound was tested and at least 50 percent mortality was observed),B (either (1) the compound was tested and less than 50 percent mortality was observed or (2) the compound was not tested)
CCCC1C(c2ccc(/C=N/O[C@@H]3O[C@@H](C)[C@H](OC)[C@@H](OC)[C@H]3OC)cc2)=NN(c2ccc(OC(F)(F)F)cc2)C1C(=O)OCC (stereo partly shown) [Compound 55],,A (the compound was tested and at least 50 percent mortality was observed),A (the compound was tested and at least 50 percent mortality was observed),,,A (the compound was tested and at least 50 percent mortality was observed),
CO[C@@H]1[C@@H](OC)[C@H](C)O[C@H](OC(=O)Nc2ccc(-c3cn(-c4ccc(OC(F)(F)F)cc4)cn3)cc2)[C@@H]1OC [Compound 174],A (the compound was tested and at least 50 percent mortality was observed),A (the compound was tested and at least 50 percent mortality was observed),A (the compound was tested and at least 50 percent mortality was observed),,,,
COC1C(C)OC(ON=Cc2ccc(-c3cn(-c4ccc(Cl)cc4)cn3)cc2)C(OC)C1OC (stereo not shown) [Compound 43],,B (either (1) the compound was tested and less than 50 percent mortality was observed or (2) the compound was not tested),A (the compound was tested and at least 50 percent mortality was observed),,,B (either (1) the compound was tested and less than 50 percent mortality was observed or (2) the compound was not tested),
CCO[C@@H]1[C@@H](OC)[C@H](C)O[C@@H](OC(=O)Nc2ccc(N3CCN(c4ccc(OC(F)(F)F)cc4)C3=O)cc2)[C@@H]1OC [Compound 188],B (either (1) the compound was tested and less than 50 percent mortality was observed or (2) the compound was not tested),B (either (1) the compound was tested and less than 50 percent mortality was observed or (2) the compound was not tested),A (the compound was tested and at least 50 percent mortality was observed),,,,
CCOC1C(OC)C(C)OC(ON=Cc2ccc(-c3ncn(-c4ccc(C(F)(F)F)nc4)n3)cc2)C1OC (stereo not shown) [Compound 121],,B (either (1) the compound was tested and less than 50 percent mortality was observed or (2) the compound was not tested),A (the compound was tested and at least 50 percent mortality was observed),,,B (either (1) the compound was tested and less than 50 percent mortality was observed or (2) the compound was not tested),
COC1C(C)OC(ON=Cc2ccc(-c3cncc(-c4ccc(OC(F)(F)F)cc4)n3)cc2)C(OC)C1OC (stereo not shown) [Compound 159],A (the compound was tested and at least 50 percent mortality was observed),A (the compound was tested and at least 50 percent mortality was observed),A (the compound was tested and at least 50 percent mortality was observed),,,,
COC1C(C)OC(ON=Cc2ccc(-c3ccn(-c4ccc(OC(F)(F)C(F)(F)F)cc4)n3)cc2)C(OC)C1OC (stereo not shown) [Compound 8],,B (either (1) the compound was tested and less than 50 percent mortality was observed or (2) the compound was not tested),A (the compound was tested and at least 50 percent mortality was observed),,,B (either (1) the compound was tested and less than 50 percent mortality was observed or (2) the compound was not tested),
CCO[C@@H]1[C@@H](OC)[C@H](C)O[C@@H](OC(=O)Nc2ccc(C3CC(c4ccc(OC(F)(F)F)cc4)=NO3)cc2)[C@@H]1OC (stereo partly shown) [Compound 183],A (the compound was tested and at least 50 percent mortality was observed),A (the compound was tested and at least 50 percent mortality was observed),A (the compound was tested and at least 50 percent mortality was observed),,,,
COC1C(C)OC(ON=Cc2ccccc2-c2cn(-c3ccc(OC(F)(F)F)cc3)cn2)C(OC)C1OC (stereo not shown) [Compound 19],,B (either (1) the compound was tested and less than 50 percent mortality was observed or (2) the compound was not tested),B (either (1) the compound was tested and less than 50 percent mortality was observed or (2) the compound was not tested),,,B (either (1) the compound was tested and less than 50 percent mortality was observed or (2) the compound was not tested),
COc1ccc(-c2nc(-c3ccc(C=NOC4OC(C)C(OC)C(OC)C4OC)cc3)cs2)cc1 (stereo not shown) [Compound 62],,A (the compound was tested and at least 50 percent mortality was observed),A (the compound was tested and at least 50 percent mortality was observed),,,A (the compound was tested and at least 50 percent mortality was observed),
CCOC1C(OC)C(C)OC(ON=Cc2ccc(-c3nsc(-c4ccc(OC(F)(F)F)cc4)n3)cc2)C1OC (stereo not shown) [Compound 129],,B (either (1) the compound was tested and less than 50 percent mortality was observed or (2) the compound was not tested),A (the compound was tested and at least 50 percent mortality was observed),,,B (either (1) the compound was tested and less than 50 percent mortality was observed or (2) the compound was not tested),
